From publication PMC6783924, “Alkaloid Lindoldhamine Inhibits Acid-Sensing Ion Channel 1a and Reveals Anti-Inflammatory Properties” (Toxins, 2019)

Biological target: T1, acid-sensing ion channel isoform 1a (ASIC1a) (Rattus norvegicus, UniProt P55926)
T1 construct: gene Asic1
T1 sequence (P55926 1-526): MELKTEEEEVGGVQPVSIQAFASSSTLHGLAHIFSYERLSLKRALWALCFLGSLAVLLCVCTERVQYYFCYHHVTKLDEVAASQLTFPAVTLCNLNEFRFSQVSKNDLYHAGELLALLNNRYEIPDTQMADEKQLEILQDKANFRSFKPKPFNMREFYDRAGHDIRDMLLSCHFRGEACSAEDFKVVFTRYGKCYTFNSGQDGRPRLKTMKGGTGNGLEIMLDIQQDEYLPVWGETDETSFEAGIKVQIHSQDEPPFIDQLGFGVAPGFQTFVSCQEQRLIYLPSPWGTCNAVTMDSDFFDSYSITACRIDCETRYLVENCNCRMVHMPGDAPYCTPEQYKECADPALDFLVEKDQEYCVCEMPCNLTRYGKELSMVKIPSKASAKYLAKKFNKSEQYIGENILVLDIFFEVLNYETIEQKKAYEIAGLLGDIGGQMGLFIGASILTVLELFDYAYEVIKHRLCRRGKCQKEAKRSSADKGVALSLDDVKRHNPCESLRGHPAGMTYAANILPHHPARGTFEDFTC
Experiment: two-electrode voltage clamp, Xenopus laevis oocytes expressing rat ASIC1a, pH […] stimulus from pH […]
Assay type: cell-based
Conditions: read-out: pH 6.85

- IC50: 9 ± 0.3 µM
Structure (SMILES): COc1cc2c(cc1O)C(Cc1ccc(O)c(Oc3ccc(C[C@@H]4NCCc5cc(OC)c(O)cc54)cc3)c1)NCC2 (stereo partly shown) [LIN, lindoldhamine]
